# Earlier results, collected in patent publication EP1707213A1, “Herbal composition for the treatment of cutaneous Erythema” (Kern, Elisabeth, priority 2005, dated 2006).
# Like-named read-outs stand apart in the source and are kept apart here.
# What was measured:
# [1] = system: durch Doxil induziertes Hand-Fuß-Syndrom; settings: patients with hand-foot syndrome of Grade 2 bis 4 under Doxil
compound,measurement,setting,value
"CCCCCOC(=O)Nc1nc(=O)n([C@@H]2O[C@H](C)[C@@H](O)[C@H]2O)cc1F [Capecitabin, N4-Pentyloxycarbonyl-5'desoxy-Fluorocytidin]",palmoplantare Erythrodysästhesie als häufigste Nebenwirkung,Patienten; in vivo,50 % der Patienten
C[C@@H]1C[C@H]2[C@@H]3CCC4=CC(=O)C=C[C@]4(C)[C@@]3(F)[C@@H](O)C[C@]2(C)[C@@]1(O)C(=O)CO [Dexamethason],Fortführung der Chemotherapie mit der ursprünglichen Dosierung von Doxil,[1],möglich
"O=c1[nH]cc(F)c(=O)[nH]1 [Zusammensetzung 5-FU, 5-Fluorouracil]",palmoplantare Erythrodysästhesie als häufigste Nebenwirkung,Patienten; use as cytostatic,50 % der Patienten
